Assay results taken from US11389456B2, “Compounds and methods for treating oxalate-related diseases” (OxaluRx, Inc., priority 2018, dated 2022).
pIC50: −log10 of the molar value. ≈ marks a conversion by molar mass, not a printed value. Read-outs that look alike come from different tables or passages of the source.

Assays:
[1] = Metabolic stability in human liver microsomal preparation; type: in vitro ADME; conditions: pH 7.4, human liver microsomes, NADPH, 37° C.; for half-life at 1 μM: 0-45 min, read-out: Metabolic Stability t1/2
Procedure: For evaluating the metabolic stability in human liver microsomal preparation, three buffers were prepared. Buffer A had 1.0 L of 0.1 M monobasic potassium phosphate buffer containing 1.0 mM EDTA. Buffer B had 1.0 L of 0.1 M dibasic potassium phosphate buffer containing 1.0 mM EDTA. Buffer C had 0.1 M potassium phosphate buffer, 1.0 mM EDTA, adjusted to a pH 7.4 via titrating 700 mL buffer B with buffer A. Reference compound (ketanserin) and test compounds spiking solutions (500 μM) were prepared by adding 10 μL of 10 mM DMSO stock compound solution into 190 μL acetonitrile. A volume of 1.5 μL 500 μM spiking solution and 18.75 μL 20 mg/mL human liver microsomes were added into 479.75 μL of Buffer C on ice. A stock solution of 6 mM NADPH was prepared by dissolving NADPH into Buffer C.
Wells on an assay plate were iced and filled with 30 μL 1.5-μM spiking solution containing 0.75 mg/mL microsomes solution and designated for different timepoints (0-, 5-, 15-, 30-, 45-min). For the 0-min timepoint, 135 μL acetonitrile containing internal standard were added followed by 15 μL of NADPH stock solution (6 mM). All other plates were preincubated at 37° C. for 5 minutes and 15 μL NADPH stock solution (6 mM) were added to the plates to start the reaction. At 5-min, 15-min, 30-min, and 45-min, 135 μL acetonitrile containing internal standard were added to the wells of corresponding plates, respectively, to stop the reaction. After quenching, the plates were shaken on the vibrator (IKA, MTS 2/4) for 10 min at 600 rpm and then centrifuged at 5594×g for 15 minutes (Thermo Multifuge×3R). Fifty μL supernatant from each well were transported into a 96-well sample plate containing 50 μL of ultra-pure water (Millipore, ZMQS50F01) for LC/MS analysis.

[2] = Stability in human plasma; type: in vitro ADME; conditions: read-out: Plasma Stability T1/2
How it was run: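 Pooled human plasma (pH 7.4-8) at 37° C, test compound spiked from a 0.02 mM solution in phosphate buffer with 0.5% BSA. Samples taken at 0, 5, 15, 30, 45 and 60 min, quenched with acetonitrile containing internal standard, and remaining compound measured by LC/MS.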

[3] = target: glycolate oxidase (GOX) in HepaRG-CAR cells (Homo sapiens (Human), UniProt Q9UJM8); assay: HepaRG-CAR cell-based assay for quantitation of glycolate oxidase inhibition (cellular glycolate flux, GC-MS)
[4] = Solubility in phosphate buffered saline (PBS), pH 7.4; type: physicochemical; conditions: phosphate buffer (PBS), aqueous buffer, kinetic from dmso stock; phosphate buffered saline pH 7.4, 1% DMSO, 1 hour shaking at room temperature
Procedure: (§1) For testing compound solubility in phosphate buffered saline (PBS), compound stock solutions were prepared at 10 mM in 100% DMSO. For testing in aqueous solution, the phosphate buffer was replaced with deionized, distilled water. Eleven grams Na2HPO4 (FW: 141.96 g/mol) and 3.5 g NaH2PO4.2H2O (FW: 156.03 g/mol) was added to 1 L Milli-Q water and adjusted to a pH to 7.4 with phosphoric acid or sodium hydroxide. For incubation, media were preheated to 37° C. Eight μL aliquots of reference and test compound stock solutions (10 mM) were added into 792 μL of 100 mM phosphate buffer (pH 7.4). The final DMSO concentration was 1%. Sample tubes were shaken for 1 hour at 1000 rpm at room temperature.
(§2) The calibration curve was prepared with 300-μM spiking solution (SS) in MeOH:acetonitrile (4:1). Six μL of 10 mM compound was added in 194 μL MeOH/acetonitrile (4:1). Samples were centrifuged for 10 minutes at 12,000 rpm to precipitate undissolved particles. Supernatants were transferred to a new tube or plate and dilute 10-fold and 100-fold with 100 mM buffer. Samples were prepared for LC-MS/MS analysis by adding 5 μL each sample (undiluted, 10-fold diluted, and 100-fold diluted) and 5 μL of standard curve samples to 95 μL of acetonitrile (containing internal standard).

[5] = Solubility in aqueous solution (deionized, distilled water); type: physicochemical; conditions: kinetic from dmso stock, 1% DMSO, read-out: Aqueous Solubility H2O
Procedure: as §1, §2

[6] = Protein binding (plasma equilibrium dialysis); type: in vitro ADME; conditions: 5 hours at 37° C.; for fraction unbound at 5 h, 1 μM: read-out: Protein Binding Fraction Bound (converted)
How it was run: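 Compound spiked into plasma at 1 μM final (0.2% DMSO) and dialysed against phosphate buffer for 5 hours at 37 °C with shaking. Donor and receiver samples, matrix-matched and acetonitrile-quenched with internal standard, quantified by LC/MS/MS alongside 0-hour plasma samples.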

[7] = target: recombinant full-length human hydroxyacid oxidase 1 (HAO1), the equivalent of hGOX (Homo sapiens (Human), UniProt Q9UJM8); assay: In-vitro human glycolate oxidase (hGOX) assay (Amplex red/HRP fluorescence); type: biochemical
Procedure: Biological Activity Assay: In-Vitro Human Glycolate Oxidase (hGOX) Assay
The in-vitro glycolate oxidase assay was performed using recombinant full-length human hydroxyacid oxidase 1 (HAO1), the equivalent of hGOX. […] Purified HAO1 was dissolved in assay buffer consisting of 10 mM NaCl, 110 mM KCl, 2 mM MgCl2, 50 mM HEPES (pH 7.4) and 0.01% Triton™ X-100.

[8] = HepaRG-CAR cells, 500 μM glycolate, 48 hours incubation, read-out: IC50

Chain of recombinant full-length human hydroxyacid oxidase 1 (HAO1), the equivalent of hGOX (Q9UJM8 whole entry): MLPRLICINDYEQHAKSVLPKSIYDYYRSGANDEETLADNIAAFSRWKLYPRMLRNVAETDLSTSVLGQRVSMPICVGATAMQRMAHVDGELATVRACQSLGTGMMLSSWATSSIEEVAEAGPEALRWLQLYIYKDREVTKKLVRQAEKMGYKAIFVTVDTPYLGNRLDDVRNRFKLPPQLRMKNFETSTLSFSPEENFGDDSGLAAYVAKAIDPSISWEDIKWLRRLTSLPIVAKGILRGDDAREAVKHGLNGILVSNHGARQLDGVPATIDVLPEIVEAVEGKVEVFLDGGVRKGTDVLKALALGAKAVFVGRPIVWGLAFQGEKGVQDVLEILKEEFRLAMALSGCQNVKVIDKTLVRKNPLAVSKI
Chain of glycolate oxidase (GOX) in HepaRG-CAR cells (Q9UJM8 whole entry): as above

| CLint scaled at 1 μM [1] [mL/min/kg] | half-life at 1 μM [1] [h] | half-life at 2 μM [2] [h] | pIC50 [3, 8] | solubility at 1 h [4] [µM] | solubility at 1 h [5] [µM] | recovery at 5 h, 1 μM [6] [%] | pIC50 [7] | fraction unbound at 5 h, 1 μM [6] | pIC50 [3] | Compound |
| --- | --- | --- | --- | --- | --- | --- | --- | --- | --- | --- |
| < 0.15 | > 83.3 | 0.786 | 6.40 | 96.8 (≈ 28.9 µg/mL) | 96.1 (≈ 28.6 µg/mL) | 105 | 7.47 |  |  | Cc1cc(Oc2[nH]nnc2C(=O)O)ccc1Br [Example I-037, 5-(4-Bromo-3-methylphenoxy)-1H-1,2,3-triazole-4-carboxylic acid] |
| < 0.15 | > 83.3 | 1.05 | 6.52 | 95.8 (≈ 24.3 µg/mL) | 93.5 (≈ 23.7 µg/mL) | 110 | 7.36 |  |  | Cc1cc(Oc2[nH]nnc2C(=O)O)ccc1Cl [Example I-258, 5-(4-Chloro-3-methylphenoxy)-1H-1,2,3-triazole-4-carboxylic acid] |
| 8.95 | 3.24 | 2.43 |  | 110 (≈ 34.1 µg/mL) | 99.4 (≈ 30.9 µg/mL) | 98.8 | 7.60 | 0.089 | < 5.30 | COc1ccc(-c2cccc(Oc3[nH]nnc3C(=O)O)c2)cc1 [Example I-250, 5-((4′-Methoxy-[1,1′-biphenyl]-3-yl)oxy)-1H-1,2,3-triazole-4-carboxylic acid] |
| < 0.15 | > 83.3 | 2.19 |  | 109 (≈ 36 µg/mL) | 103 (≈ 34.2 µg/mL) | 91.8 | 6.98 | 0.01 |  | O=C(O)c1nn[nH]c1Oc1cccc(S(F)(F)(F)(F)F)c1 [Example I-269, 5-(3-Pentafluorosulfanylphenoxy)-1H-1,2,3-triazole-4-carboxylic acid] |
| 3.11 | 9.31 | 1.96 |  | 92.4 (≈ 21.2 µg/mL) | 80.6 (≈ 18.5 µg/mL) | 110 | 7.62 | 0.025 |  | C#Cc1cccc(Oc2[nH]nnc2C(=O)O)c1 [Example I-288, 5-(3-ethynylphenoxy)-1H-1,2,3-triazole-4-carboxylic acid] |
| < 0.15 | > 83.3 | 8.02 |  | 101 (≈ 23.4 µg/mL) | 97.6 (≈ 22.6 µg/mL) | 98.8 | 7.42 | 0.012 |  | C=Cc1ccc(Oc2[nH]nnc2C(=O)O)cc1 [Example I-285, 5-(4-Vinylphenoxy)-1H-1,2,3-triazole-4-carboxylic acid] |
| 8.56 | 3.38 | 2.71 |  | 113 (≈ 31.1 µg/mL) | 97.2 (≈ 26.8 µg/mL) | 108 | 7.19 | 0.003 |  | CCCC(C)c1cccc(Oc2[nH]nnc2C(=O)O)c1 (centres unmarked) [Example I-277] |
| 15.1 | 1.92 | 3.45 |  | 92.6 (≈ 24 µg/mL) | 95.8 (≈ 24.8 µg/mL) | 103 | 7.85 | 0.002 |  | CC(C)=Cc1cccc(Oc2[nH]nnc2C(=O)O)c1 [Example I-286, 5-(3-(2-Methylprop-1-en-1-yl)phenoxy)-1H-1,2,3-triazole-4-carboxylic acid] |
| < 0.15 | > 83.3 | 1.67 |  | 112 (≈ 39 µg/mL) | 90.7 (≈ 31.7 µg/mL) | 104 | 8.52 | 0.017 |  | O=C(O)c1nn[nH]c1Oc1cccc(-c2cc(Cl)cc(Cl)c2)c1 [Example I-302, 5-((3′,5′-Dichloro-[1,1′-biphenyl]-3-yl)oxy)-1H-1,2,3-triazole-4-carboxylic acid] |

Further lines, the compound ahead of its results:

| Compound | CLint scaled at 1 μM [1] [mL/min/kg] | half-life at 1 μM [1] [h] | half-life at 2 μM [2] [h] | pIC50 [3, 8] | solubility at 1 h [4] [µM] | solubility at 1 h [5] [µM] | recovery at 5 h, 1 μM [6] [%] | pIC50 [7] | fraction unbound at 5 h, 1 μM [6] | pIC50 [3] |
| --- | --- | --- | --- | --- | --- | --- | --- | --- | --- | --- |
| O=C(O)c1nn[nH]c1Oc1ccc(-c2ccccc2F)cc1 [Example I-174, 5-((2′-Fluoro-[1,1′-biphenyl]-4-yl)oxy)-1H-1,2,3-triazole-4-carboxylic acid] | 2.48 | 11.7 | 1.17 | 5.52 | 89.8 (≈ 26.9 µg/mL) | 70.3 (≈ 21.1 µg/mL) | 99.9 | 7.57 |  |  |
| O=C(O)c1nn[nH]c1Oc1ccc(-c2ccc(F)cc2)cc1 [Example I-160, 5-((4′-Fluoro-[1,1′-biphenyl]-4-yl)oxy)-1H-1,2,3-triazole-4-carboxylic acid] | 6.99 | 4.14 | 2.88 | 5.60 | 101 (≈ 30.3 µg/mL) | 64.6 (≈ 19.3 µg/mL) | 93.6 | 7.92 |  |  |
| O=C(O)c1nn[nH]c1Oc1ccc(-c2ccccc2)nc1 [Example I-263, 5-((6-Phenylpyridin-3-yl)oxy)-1H-1,2,3-triazole-4-carboxylic acid] | 2.48 | 11.7 | 1.51 | < 5.00 | 106 (≈ 29.9 µg/mL) | 99 (≈ 27.9 µg/mL) | 111 | 6.85 | 0.014 |  |
| CC(C)Cc1ccc(Oc2[nH]nnc2C(=O)O)cc1 [Example I-299, 5-(4-Isobutylphenoxy)-1H-1,2,3-triazole-4-carboxylic acid] | 11.3 | 2.55 | 1.22 |  | 104 (≈ 27.1 µg/mL) | 98.4 (≈ 25.7 µg/mL) | 114 | 7.48 | 0.002 |  |
| O=C(O)c1[nH]nnc1Oc1ccc(C2CCCCC2)cc1 [Example I-266, 5-(4-Cyclohexylphenoxy)-1H-1,2,3-triazole-4-carboxylic acid] | 26.4 | 1.1 | 3.11 |  | 96.5 (≈ 27.7 µg/mL) | 108 (≈ 31 µg/mL) | 101 | 7.52 |  |  |
| O=C(O)c1nn[nH]c1Oc1ccc(C2CCCC2)cc1 [Example I-265, 5-(4-Cyclopentylphenoxy)-1H-1,2,3-triazole-4-carboxylic acid] | 18.6 | 1.55 | 1.44 |  | 107 (≈ 29.2 µg/mL) | 100 (≈ 27.4 µg/mL) | 110 | 7.60 |  |  |
| O=C(O)c1nn[nH]c1Oc1cccc(-c2ccc3ccccc3c2)c1 [Example I-178, 5-(3-(Naphthalen-2-yl)phenoxy)-1H-1,2,3-triazole-4-carboxylic acid] | 7.08 | 4.09 | 0.985 |  | 97.9 (≈ 32.4 µg/mL) | 83.4 (≈ 27.6 µg/mL) | 109 | 4.89 |  |  |
| O=C(O)c1[nH]nnc1Oc1ccc(-c2ccc(Cl)cc2)cc1 [Example I-152, 5-((4′-Chloro-[1,1′-biphenyl]-4-yl)oxy)-1H-1,2,3-triazole-4-carboxylic acid] |  |  | 3.22 | 5.00 |  |  | 97.7 | 7.77 |  |  |
